In patent US11230549B2, “Quinolino-pyrrolidin-2-one derivative and application thereof” (MEDSHINE DISCOVERY INC., priority 2018, dated 2022) one finds IC50 data, which are given here for 35 molecules.

Each structure is given as a SMILES string.

Assay [1] addresses T1, Human-derived DNA-PK kinase (Homo sapiens, UniProt P78527).
T1 construct: Eurofins (contract laboratory that ran the test)
In words: DNA-PK enzyme activity test (HTRF, phosphorylation of GST-cMyc-p53). The assay is classed as biochemical. On the procedure:
(§1) The compounds of the present disclosure used for experiments are all prepared in-house, and their chemical names and structural formulas are shown in the preparation examples of each compound. The experimental tests were carried out by a UK company Eurofins, and the experimental results were provided by the company. The following experimental processes were also provided by the company.
(§2) Human-derived DNA-PK kinase was incubated in a buffer solution containing 50 nM of GST-cMyc-p53 and Mg/ATP. The concentration of Mg/ATP was determined according to different needs. The reaction was initiated by adding a Mg/ATP complex. After incubating for about 30 minutes at room temperature, a stop solution containing EDTA was added to stop the reaction. Finally, for phosphorylated p53, a detection buffer containing a d2-labeled anti-GST monoclonal antibody and an europium-labeled phosphorylated Ser15 antibody was added. Then time-resolved fluorescence mode was used to read a detection disk, and a homogeneous time-resolved fluorescence (HTRF) signal was obtained by calculating formula HTRF=10000×(Em665 nm/Em620 nm).

The target of another assay is T2, Human-derived ATM kinase (Homo sapiens, UniProt Q13315).
T2 construct: Eurofins (contract laboratory that ran the test)
The assay is described as follows: ATM enzyme activity test (HTRF, phosphorylation of GST-cMyc-p53). The assay is classed as biochemical. On the procedure: as §1
as §2, with “ATM” for “DNA-PK”, “30” for “50”

T2 sequence (Q13315 whole entry): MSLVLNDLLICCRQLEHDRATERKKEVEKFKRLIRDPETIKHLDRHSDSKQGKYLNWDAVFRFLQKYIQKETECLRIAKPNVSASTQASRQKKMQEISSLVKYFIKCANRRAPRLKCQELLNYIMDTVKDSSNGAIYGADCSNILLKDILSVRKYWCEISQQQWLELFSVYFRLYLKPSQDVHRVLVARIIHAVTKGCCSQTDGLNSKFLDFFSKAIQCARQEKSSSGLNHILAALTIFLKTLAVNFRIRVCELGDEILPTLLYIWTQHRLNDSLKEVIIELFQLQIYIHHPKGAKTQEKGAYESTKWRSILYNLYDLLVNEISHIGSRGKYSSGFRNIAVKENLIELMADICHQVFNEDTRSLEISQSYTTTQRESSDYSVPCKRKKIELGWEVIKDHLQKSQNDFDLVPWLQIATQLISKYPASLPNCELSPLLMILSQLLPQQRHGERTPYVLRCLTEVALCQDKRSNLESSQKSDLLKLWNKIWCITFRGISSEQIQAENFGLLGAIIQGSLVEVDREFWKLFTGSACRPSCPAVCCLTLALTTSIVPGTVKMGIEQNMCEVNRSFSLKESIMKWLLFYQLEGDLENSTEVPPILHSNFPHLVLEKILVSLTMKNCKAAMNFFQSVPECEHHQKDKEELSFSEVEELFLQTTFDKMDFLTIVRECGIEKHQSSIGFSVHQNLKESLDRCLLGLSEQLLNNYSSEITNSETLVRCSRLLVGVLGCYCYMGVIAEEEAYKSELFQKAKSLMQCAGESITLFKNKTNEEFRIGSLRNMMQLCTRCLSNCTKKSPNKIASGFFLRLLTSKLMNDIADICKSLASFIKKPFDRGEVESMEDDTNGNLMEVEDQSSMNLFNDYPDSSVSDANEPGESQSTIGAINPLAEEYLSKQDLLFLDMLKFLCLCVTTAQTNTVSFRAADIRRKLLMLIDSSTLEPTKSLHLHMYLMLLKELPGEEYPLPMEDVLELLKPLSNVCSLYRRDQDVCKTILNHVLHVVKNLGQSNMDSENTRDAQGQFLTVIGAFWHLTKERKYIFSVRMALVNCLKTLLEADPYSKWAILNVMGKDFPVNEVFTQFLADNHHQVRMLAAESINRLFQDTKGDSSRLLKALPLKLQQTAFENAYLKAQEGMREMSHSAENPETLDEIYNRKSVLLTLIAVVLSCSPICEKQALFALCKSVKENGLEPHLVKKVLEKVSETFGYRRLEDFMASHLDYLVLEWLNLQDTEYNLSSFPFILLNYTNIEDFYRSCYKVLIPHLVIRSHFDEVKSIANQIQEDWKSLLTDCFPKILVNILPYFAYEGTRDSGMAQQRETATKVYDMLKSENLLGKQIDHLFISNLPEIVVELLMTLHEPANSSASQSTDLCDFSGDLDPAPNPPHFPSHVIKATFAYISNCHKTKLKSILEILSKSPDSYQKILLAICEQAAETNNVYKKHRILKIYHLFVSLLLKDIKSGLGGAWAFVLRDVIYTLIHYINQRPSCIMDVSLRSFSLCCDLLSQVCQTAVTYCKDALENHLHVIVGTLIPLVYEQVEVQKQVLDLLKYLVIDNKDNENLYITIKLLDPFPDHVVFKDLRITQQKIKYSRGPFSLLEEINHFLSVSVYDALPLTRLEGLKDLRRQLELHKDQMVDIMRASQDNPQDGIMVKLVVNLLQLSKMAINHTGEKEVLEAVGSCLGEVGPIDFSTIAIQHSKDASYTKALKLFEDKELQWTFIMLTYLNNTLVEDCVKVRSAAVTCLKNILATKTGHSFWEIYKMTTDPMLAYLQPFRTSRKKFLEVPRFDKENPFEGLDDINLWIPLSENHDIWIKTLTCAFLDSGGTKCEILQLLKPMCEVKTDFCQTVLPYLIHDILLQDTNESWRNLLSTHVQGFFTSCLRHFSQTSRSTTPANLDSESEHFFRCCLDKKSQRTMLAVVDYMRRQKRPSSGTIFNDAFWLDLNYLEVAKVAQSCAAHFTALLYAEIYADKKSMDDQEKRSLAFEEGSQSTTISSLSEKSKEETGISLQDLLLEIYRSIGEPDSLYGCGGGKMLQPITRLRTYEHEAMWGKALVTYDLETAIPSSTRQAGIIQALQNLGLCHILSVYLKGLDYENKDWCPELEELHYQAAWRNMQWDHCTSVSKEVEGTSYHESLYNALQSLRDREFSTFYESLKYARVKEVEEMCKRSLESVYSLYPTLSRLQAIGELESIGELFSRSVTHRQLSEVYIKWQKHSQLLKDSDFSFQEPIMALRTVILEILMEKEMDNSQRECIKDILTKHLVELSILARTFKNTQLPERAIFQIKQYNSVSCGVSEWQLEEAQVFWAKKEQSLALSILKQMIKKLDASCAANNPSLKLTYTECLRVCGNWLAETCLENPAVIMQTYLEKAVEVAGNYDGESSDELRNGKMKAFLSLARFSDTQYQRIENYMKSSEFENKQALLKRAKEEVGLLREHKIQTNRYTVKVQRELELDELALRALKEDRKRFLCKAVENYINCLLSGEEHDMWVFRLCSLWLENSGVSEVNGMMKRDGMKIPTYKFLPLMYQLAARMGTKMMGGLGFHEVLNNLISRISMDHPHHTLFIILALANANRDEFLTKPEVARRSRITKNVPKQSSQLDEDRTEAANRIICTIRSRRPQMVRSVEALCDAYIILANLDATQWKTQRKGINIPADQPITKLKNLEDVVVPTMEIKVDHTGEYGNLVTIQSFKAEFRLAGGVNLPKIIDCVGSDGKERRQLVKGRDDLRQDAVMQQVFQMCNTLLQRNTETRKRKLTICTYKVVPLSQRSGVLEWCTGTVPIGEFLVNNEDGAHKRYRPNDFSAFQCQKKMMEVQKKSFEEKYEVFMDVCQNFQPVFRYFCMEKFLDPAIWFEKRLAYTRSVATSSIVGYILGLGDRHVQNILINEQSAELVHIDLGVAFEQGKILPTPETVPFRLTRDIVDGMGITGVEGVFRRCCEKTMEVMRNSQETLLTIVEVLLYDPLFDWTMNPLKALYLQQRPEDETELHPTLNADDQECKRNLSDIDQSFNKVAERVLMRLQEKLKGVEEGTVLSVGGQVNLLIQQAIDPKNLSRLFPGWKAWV

For the molecule `CN(C)CCCOc1ccc(-c2ccc3ncc4c(c3c2)C2(CCOCC2)C(=O)N4C2CC2)cn1` [Example 29], the IC50 in assay [1] amounted to 269 nM; at Human-derived ATM kinase, 2 nM.

Consider `CC(C)N1CCC2(CC1)C(=O)N(C)c1cnc3ccc(-c4ccc(OCCCN5CCCCC5)nc4)cc3c12` [Example 16], for which the IC50 in assay [1] amounted to 204 nM; against Human-derived ATM kinase, 4 nM.

In the case of `CN(C)CCCOc1ccc(-c2cc3c4c(cnc3cc2F)N(C)C(=O)C42CCOCC2)cn1` [Example 33], the IC50 in assay [1] turned out to be 593 nM; against Human-derived ATM kinase, 1 nM.

`CN1C(=O)C2(CCOCC2)c2c1cnc1ccc(-c3cnn(C)c3)cc21` [Example 2]: the values for the IC50 (in assay [1]; against Human-derived ATM kinase) were 73 nM and 288 nM, respectively.

As for `CN(C)CCCOc1ccc(-c2ccc3ncc4c(c3c2)C2(CCNCC2)C(=O)N4C)cn1` [Example 8], the values for the IC50 (in assay [1]; against Human-derived ATM kinase) were 99 nM and 3 nM, respectively.

Consider `COC(=O)N1CCC2(CC1)C(=O)N(C)c1cnc3ccc(-c4ccc(OCCCN5CCCCC5)nc4)cc3c12` [Example 20], for which the IC50 in assay [1] amounted to 129 nM; against Human-derived ATM kinase it was 2 nM.

With `CN(C)CCCOc1ccc(-c2ccc3ncc4c(c3c2)C2(CCN(C(=O)C3CC3)CC2)C(=O)N4C)cn1` [Example 18], the IC50 came out at 343 nM in assay [1] and 2 nM against Human-derived ATM kinase.

`CN(C)CCCOc1ccc(-c2ccc3ncc4c(c3c2)C2(CCOCC2)C(=O)N4C)cn1` [Example 1]: the IC50 stood at 78 nM in assay [1] and 0.9 nM at Human-derived ATM kinase.

With `COC(=O)N1CCC2(CC1)C(=O)N(C)c1cnc3ccc(-c4ccc(OCCCN(C)C)nc4)cc3c12` [Example 19], the half-inhibitory concentration (IC50) turned out to be 77 nM in assay [1] and 0.8 nM against Human-derived ATM kinase.

With `CN(C)CCCOc1ccc(-c2cc3c4c(cnc3cc2F)N(C2CC2)C(=O)C42CCOCC2)cn1` [Example 34], the IC50 in assay [1] was greater than 1000 nM; against Human-derived ATM kinase it was 5 nM.

In the case of `CN1C(=O)C2(CCOCC2)c2c1cnc1ccc(-c3ccc(OCCCN4CCCCC4)nc3)cc21` [Example 24], the IC50 in assay [1] was 80 nM; against Human-derived ATM kinase, 2 nM.

On to `CCN1CCC2(CC1)C(=O)N(C)c1cnc3ccc(-c4ccc(OCCCN(C)C)nc4)cc3c12` [Example 10], for which the IC50 in assay [1] turned out to be 80 nM; on Human-derived ATM kinase, 2 nM.

Turning to `CCN1CCC2(CC1)C(=O)N(C)c1cnc3ccc(-c4ccc(OCCCN5CCCCC5)nc4)cc3c12` [Example 11], the IC50 in assay [1] came out at 243 nM; at Human-derived ATM kinase, 2 nM.

Regarding `CN(C)CCCOc1ccc(-c2cc3c4c(cnc3cc2Cl)N(C)C(=O)C42CCOCC2)cn1` [Example 36], the IC50 in assay [1] is greater than 1000 nM; against Human-derived ATM kinase it was 12 nM.

As for `O=C1N(C2CC2)c2cnc3cc(F)c(-c4ccc(OCCCN5CCCCC5)nc4)cc3c2C12CCOCC2` [Example 35], the IC50 in assay [1] is greater than 1000 nM; on Human-derived ATM kinase, 3 nM.

On to `CN1C(=O)C2(CCN(CC(F)(F)F)CC2)c2c1cnc1ccc(-c3ccc(OCCCN4CCCCC4)nc3)cc21` [Example 14], for which the IC50 was determined as 46 nM in assay [1] and 3 nM on Human-derived ATM kinase.

Consider `CC(C)N1CCC2(CC1)C(=O)N(C)c1cnc3ccc(-c4ccc(OCCCN(C)C)nc4)cc3c12` [Example 15], for which the IC50 stood at 41 nM in assay [1] and 2 nM against Human-derived ATM kinase.

Regarding `CC(=O)N1CCC2(CC1)C(=O)N(C)c1cnc3ccc(-c4ccc(OCCCN(C)C)nc4)cc3c12` [Example 17], the IC50 in assay [1] turned out to be 352 nM; on Human-derived ATM kinase, 3 nM.

Regarding `COC1CCC2(CC1)C(=O)N(C)c1cnc3ccc(-c4ccc(OCCCN(C)C)nc4)cc3c12` (stereo not shown) [Example 25], the IC50 was 92 nM in assay [1] and 1 nM against Human-derived ATM kinase.

For `CN(C)CCCOc1ccc(-c2ccc3ncc4c(c3c2)C2(CCC(F)(F)CC2)C(=O)N4C)cn1` [Example 7], the IC50 in assay [1] was determined as 153 nM; on Human-derived ATM kinase, 1 nM.

In the case of `CN1C(=O)C2(CCOCC2)c2c1cnc1ccc(-c3ccc(OCCCN4CCC(F)CC4)nc3)cc21` [Example 5], the IC50 in assay [1] came out at 92 nM; on Human-derived ATM kinase, 2 nM.

As to `CN(C)CCCOc1ccc(-c2ccc3ncc4c(c3c2)C2(CCC(O)CC2)C(=O)N4C)cn1` (stereo not shown) [Example 26], the IC50 in assay [1] turned out to be 76 nM; against Human-derived ATM kinase, 1 nM.

Take `CC(C)OC(=O)N1CCC2(CC1)C(=O)N(C)c1cnc3ccc(-c4ccc(OCCCN(C)C)nc4)cc3c12` [Example 21]: the IC50 in assay [1] came to 509 nM; against Human-derived ATM kinase it was 7 nM.

Regarding `CN1C(=O)C2(CCOCC2)c2c1cnc1ccc(-c3ccc(OCCCN(C4CC4)C4CC4)nc3)cc21` [Example 6], the values for the IC50 (in assay [1]; against Human-derived ATM kinase) were 800 nM and 2 nM, respectively.

Turning to `CN(C)CCCOc1ccc(-c2ccc3ncc4c(c3c2)C2(CCC(C)(O)CC2)C(=O)N4C)cn1` (stereo not shown) [Example 27], the IC50 in assay [1] was found to be 99 nM; against Human-derived ATM kinase it was 1 nM.

With `O=C1N(C2CC2)c2cnc3ccc(-c4ccc(OCCCN5CCCCC5)nc4)cc3c2C12CCOCC2` [Example 30], the IC50 came to 475 nM in assay [1] and 2 nM against Human-derived ATM kinase.

Consider `CN1C(=O)C2(CCC(C)(O)CC2)c2c1cnc1ccc(-c3ccc(OCCCN4CCCCC4)nc3)cc21` (stereo not shown) [Example 28], for which the half-inhibitory concentration (IC50) came to 334 nM in assay [1] and 2 nM against Human-derived ATM kinase.

For the molecule `CN(C)CCCOc1ccc(-c2ccc3ncc4c(c3c2)C2(CCN(C3CC3)CC2)C(=O)N4C)cn1` [Example 22], the IC50 in assay [1] was 14 nM; against Human-derived ATM kinase, 1 nM.

Consider `CN(C)CCCOc1ccc(-c2ccc3ncc4c(c3c2)C2(CCN(C)CC2)C(=O)N4C)cn1` [Example 9], for which the IC50 in assay [1] is 83 nM; against Human-derived ATM kinase, 1 nM.

In the case of `CN1C(=O)C2(CCOCC2)c2c1cnc1ccc(-c3ccc(OCCCN4CC[C@@H](F)C4)nc3)cc21` [Example 4], the IC50 in assay [1] stood at 62 nM; at Human-derived ATM kinase, 1 nM.

In the case of `COCc1ccc(-c2ccc3ncc4c(c3c2)C2(CCOCC2)C(=O)N4C)cn1` [Example 31], the IC50 amounted to 88 nM in assay [1] and 63 nM at Human-derived ATM kinase.

On to `CN1C(=O)C2(CCOCC2)c2c1cnc1ccc(-c3ccc(OCCCN4CC[C@H](F)C4)nc3)cc21` [Example 3], for which the IC50 in assay [1] turned out to be 48 nM; against Human-derived ATM kinase it was 1 nM.

Regarding `CN(C)CCCOc1ccc(-c2ccc3ncc4c(c3c2)C2(CCN(CC(F)F)CC2)C(=O)N4C)cn1` [Example 12], the values for the IC50 (in assay [1]; on Human-derived ATM kinase) were 26 nM and 2 nM, respectively.

In the case of `CN(C)CCCOc1ccc(-c2ccc3ncc4c(c3c2)C2(CCN(CC(F)(F)F)CC2)C(=O)N4C)cn1` [Example 13], the IC50 is 27 nM in assay [1] and 4 nM against Human-derived ATM kinase.

Take `CN1C(=O)C2(CCN(C3CC3)CC2)c2c1cnc1ccc(-c3ccc(OCCCN4CCCCC4)nc3)cc21` [Example 23]: the IC50 in assay [1] came to 30 nM; on Human-derived ATM kinase, 0.8 nM.
